From the supplement of paper PMC10307832

Legend:
Assay in all cases: relative viability (nuclei count vs DMSO), 5 days (fraction); higher = more cells survive
[1] = system: A-427
Outline: (§1)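 Lung cancer cell lines in 1536-well plates were dosed by pin tool the day after seeding, either with one drug alone or with a fixed anchor-drug dose plus five library-drug doses (not always all listed) in √10 steps. After 5 days, cells were fixed and their nuclei stained in one step (final 0.05% Triton X-100, 1% formaldehyde, 1 ug/ml Hoechst), then counted on 4× images. Relative viability is the nuclei count in treated wells divided by that in vehicle wells. Values are medians of duplicate plates.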

[2] = system: CAL-12T
Outline: as §1

[3] = system: COR-L 105
Outline: as §1

[4] = system: EMC-BAC-2
Outline: as §1

[5] = system: HARA
Outline: as §1

[6] = system: HCC-366
Outline: as §1

[7] = system: HCC-827
Outline: as §1

[8] = system: HOP-62
Outline: as §1

[9] = system: LCLC-103H
Outline: as §1

[10] = system: NCI-H1395
Outline: as §1

[11] = system: NCI-H1437
Outline: as §1

[12] = system: NCI-H1755
Outline: as §1

[13] = system: NCI-H1792
Outline: as §1

[14] = system: NCI-H1915
Outline: as §1

[15] = system: NCI-H2009
Outline: as §1

[16] = system: NCI-H2228
Outline: as §1

[17] = system: NCI-H23
Outline: as §1

[18] = system: NCI-H460
Outline: as §1

[19] = system: NCI-H522
Outline: as §1

[20] = system: NCI-H727
Outline: as §1

[21] = system: SK-LU-1
Outline: as §1

[22] = system: SW 1573
Outline: as §1

Compound: COc1cc2nccc(Oc3ccc(NC(=O)Nc4cc(C)on4)c(Cl)c3)c2cc1OC [Tivozanib] + N=C(N)NC(=N)NCCc1ccccc1 [Phenformin] (partner 250 µM)
- relative viability ([1]; first compound 0.005 µM): 0.337
- relative viability ([1]; first compound 0.01581 µM): 0.308
- relative viability ([1]; first compound 0.05 µM): 0.363
- relative viability ([1]; first compound 0.1581 µM): 0.315
- relative viability ([1]; first compound 0.5 µM): 0.241
- relative viability ([2]; first compound 0.005 µM): 0.538
- relative viability ([2]; first compound 0.01581 µM): 0.554
- relative viability ([2]; first compound 0.05 µM): 0.494
- relative viability ([2]; first compound 0.1581 µM): 0.625
- relative viability ([2]; first compound 0.5 µM): 0.558
- relative viability ([3]; first compound 0.005 µM): 0.49
- relative viability ([3]; first compound 0.01581 µM): 0.482
- relative viability ([3]; first compound 0.05 µM): 0.558
- relative viability ([3]; first compound 0.1581 µM): 0.501
- relative viability ([3]; first compound 0.5 µM): 0.43
- relative viability ([4]; first compound 0.005 µM): 0.48
- relative viability ([4]; first compound 0.01581 µM): 0.519
- relative viability ([4]; first compound 0.05 µM): 0.51
- relative viability ([4]; first compound 0.1581 µM): 0.428
- relative viability ([4]; first compound 0.5 µM): 0.441
- relative viability ([5]; first compound 0.005 µM): 0.452
- relative viability ([5]; first compound 0.01581 µM): 0.41
- relative viability ([5]; first compound 0.05 µM): 0.424
- relative viability ([5]; first compound 0.1581 µM): 0.364
- relative viability ([5]; first compound 0.5 µM): 0.489
- relative viability ([6]; first compound 0.005 µM): 0.615
- relative viability ([6]; first compound 0.01581 µM): 0.588
- relative viability ([6]; first compound 0.05 µM): 0.632
- relative viability ([6]; first compound 0.1581 µM): 0.643
- relative viability ([6]; first compound 0.5 µM): 0.611
- relative viability ([7]; first compound 0.005 µM): 0.402
- relative viability ([7]; first compound 0.01581 µM): 0.434
- relative viability ([7]; first compound 0.05 µM): 0.391
- relative viability ([7]; first compound 0.1581 µM): 0.43
- relative viability ([7]; first compound 0.5 µM): 0.452
- relative viability ([8]; first compound 0.005 µM): 0.611
- relative viability ([8]; first compound 0.01581 µM): 0.626
- relative viability ([8]; first compound 0.05 µM): 0.66
- relative viability ([8]; first compound 0.1581 µM): 0.704
- relative viability ([8]; first compound 0.5 µM): 0.714
- relative viability ([9]; first compound 0.005 µM): 0.325
- relative viability ([9]; first compound 0.01581 µM): 0.326
- relative viability ([9]; first compound 0.05 µM): 0.35
- relative viability ([9]; first compound 0.1581 µM): 0.306
- relative viability ([9]; first compound 0.5 µM): 0.348
- relative viability ([10]; first compound 0.005 µM): 0.357
- relative viability ([10]; first compound 0.01581 µM): 0.475
- relative viability ([10]; first compound 0.05 µM): 0.444
- relative viability ([10]; first compound 0.1581 µM): 0.426
- relative viability ([10]; first compound 0.5 µM): 0.383
- relative viability ([11]; first compound 0.005 µM): 0.296
- relative viability ([11]; first compound 0.01581 µM): 0.289
- relative viability ([11]; first compound 0.05 µM): 0.316
- relative viability ([11]; first compound 0.1581 µM): 0.339
- relative viability ([11]; first compound 0.5 µM): 0.317
- relative viability ([12]; first compound 0.005 µM): 0.585
- relative viability ([12]; first compound 0.01581 µM): 0.605
- relative viability ([12]; first compound 0.05 µM): 0.631
- relative viability ([12]; first compound 0.1581 µM): 0.644
- relative viability ([12]; first compound 0.5 µM): 0.459
- relative viability ([13]; first compound 0.005 µM): 0.316
- relative viability ([13]; first compound 0.01581 µM): 0.394
- relative viability ([13]; first compound 0.05 µM): 0.361
- relative viability ([13]; first compound 0.5 µM): 0.388
- relative viability ([14]; first compound 0.005 µM): 0.365
- relative viability ([14]; first compound 0.01581 µM): 0.388
- relative viability ([14]; first compound 0.05 µM): 0.317
- relative viability ([14]; first compound 0.1581 µM): 0.373
- relative viability ([14]; first compound 0.5 µM): 0.309
- relative viability ([15]; first compound 0.005 µM): 0.448
- relative viability ([15]; first compound 0.01581 µM): 0.473
- relative viability ([15]; first compound 0.05 µM): 0.453
- relative viability ([15]; first compound 0.1581 µM): 0.478
- relative viability ([15]; first compound 0.5 µM): 0.344
- relative viability ([16]; first compound 0.005 µM): 0.306
- relative viability ([16]; first compound 0.01581 µM): 0.283
- relative viability ([16]; first compound 0.05 µM): 0.325
- relative viability ([16]; first compound 0.1581 µM): 0.288
- relative viability ([16]; first compound 0.5 µM): 0.406
- relative viability ([17]; first compound 0.005 µM): 0.727
- relative viability ([17]; first compound 0.01581 µM): 0.824
- relative viability ([17]; first compound 0.05 µM): 0.783
- relative viability ([17]; first compound 0.1581 µM): 0.752
- relative viability ([17]; first compound 0.5 µM): 0.809
- relative viability ([18]; first compound 0.005 µM): 0.491
- relative viability ([18]; first compound 0.01581 µM): 0.537
- relative viability ([18]; first compound 0.05 µM): 0.509
- relative viability ([18]; first compound 0.1581 µM): 0.547
- relative viability ([18]; first compound 0.5 µM): 0.503
- relative viability ([19]; first compound 0.005 µM): 0.595
- relative viability ([19]; first compound 0.01581 µM): 0.73
- relative viability ([19]; first compound 0.05 µM): 0.593
- relative viability ([19]; first compound 0.1581 µM): 0.619
- relative viability ([19]; first compound 0.5 µM): 0.705
- relative viability ([20]; first compound 0.005 µM): 0.664
- relative viability ([20]; first compound 0.01581 µM): 0.489
- relative viability ([20]; first compound 0.05 µM): 0.439
- relative viability ([20]; first compound 0.1581 µM): 0.403
- relative viability ([20]; first compound 0.5 µM): 0.558
- relative viability ([21]; first compound 0.005 µM): 0.58
- relative viability ([21]; first compound 0.01581 µM): 0.549
- relative viability ([21]; first compound 0.05 µM): 0.629
- relative viability ([21]; first compound 0.1581 µM): 0.376
- relative viability ([21]; first compound 0.5 µM): 0.532
- relative viability ([22]; first compound 0.005 µM): 0.361
- relative viability ([22]; first compound 0.01581 µM): 0.362
- relative viability ([22]; first compound 0.05 µM): 0.369
- relative viability ([22]; first compound 0.1581 µM): 0.306
- relative viability ([22]; first compound 0.5 µM): 0.386
